From patent US20140155341A1, “USE OF SS'-DIMETHYL-GLIOTOXIN AS […] OF P[…] BY GLIOTOXIN-PRODUCING FUNGI OR THEIR DERIVATIVES” (priority 2011, published 2014)

Tests used:
[1] = Recovery of GT and bmGT from human whole blood (influence of blood cells); type: in vitro ADME; settings: whole blood, human blood, blood centrifuged before extraction to eliminate cellular fraction; for recovery at 30 min, 5 µg/mL: 5 μg added to 1 ml; for recovery at 30 min, 20 µg/mL: 20 μg added to 1 ml
Description: (§1) […] Later, the blood was centrifuged at 2000 revolutions per minute (rpm) during 15 minutes, the serum was recovered and GT and bmGT were extracted and analysed as described above.
(§2) The samples were separated using a horizontal developing chamber (Camag) by facing the plates downwards. n-heptane (C7), MeOH, tetrahydrofuran (THF) and acetonitrile (ACN) (HPLC grade, Scharlau, Barcelona, Spain) were used as solvents. The separation and quantification of GT and bmGT was performed with a mixture of THF:C7:ACN (40:58:2) (v:v:v) during 3 min.
(§3) Detection and quantification by UV spectroscopy, a TLC3 scanner was used (Camag) in UV mode whereby a UV scanning densitometry was carried out to determine GT and bmGT (wavelength (λ)=280 and 367 nm). A linear scan with a beam of 4 mm×0.2 mm was used in both cases. The area under the peaks was quantified and saved using Camag's software.
(§4) In parallel, the influence of the presence of blood cells on the recovery of GT and bmGT was analysed. Unlike the serum and plasma, less than 10% of GT was recovered from the whole blood, even when large quantities of GT (20 ug) were added (Table 1). […] The precision of this determination was as high as in the serum or plasma with RSD values of between 9-16%. Aliquots of blood and plasma from the same unit of blood were used simultaneously to perform these determinations, therefore, the only, but crucial, difference between both fluids is the presence of red and white cells in the blood.

[2] = tested on: blood cells; experiment: as above; type: in vitro ADME; settings: for lost in the blood cells: added to total blood, plasma levels analysed after 10 minutes
Description: as §1, §2, §3, §4

[3] = disulfide bond blocked by methylation; cited from earlier work

| Structure (SMILES) | recovery at 30 min, 5 µg/mL [1] [%] | recovery at 30 min, 20 µg/mL [1] [%] | lost in the blood cells [2] | recovered from the whole blood ([2]; whole blood, even when large quantities (20 ug) were added) | biological activity [3] |
| --- | --- | --- | --- | --- | --- |
| CN1C(=O)[C@]23CC4=CC=C[C@H](O)[C@H]4N2C(=O)[C@@]1(CO)SS3 [GT, Gliotoxin] | 8.44 | 6.56 | 90% | less than 10% |  |
| CS[C@]1(CO)C(=O)N2C3C(=CC=C[C@@H]3O)C[C@@]2(SC)C(=O)N1C (some centres unmarked) [bmGT] | 73.2 | 87.2 | 10-15% |  | biologically inactive |
